# Results: PMC3729937 (Biochemical and biophysical research communications, 2012)
# Experiments:
# FGFR2 D2 domain [1] = target: FGFR2 D2 domain (Homo sapiens, UniProt P21802); experiment: ITC; assay type: binding
# FGFR2 D2 domain [2] = target: FGFR2 D2 domain (Homo sapiens, UniProt P21802, A168S); experiment: ITC, supported by 1H-15N HSQC chemical shift perturbation; assay type: binding
# [3] = target: fibroblast growth factor (FGF-1) (UniProt P05230 16-155); experiment: ITC
# fibroblast growth factor (FGF-1), sequence (P05230 16-155): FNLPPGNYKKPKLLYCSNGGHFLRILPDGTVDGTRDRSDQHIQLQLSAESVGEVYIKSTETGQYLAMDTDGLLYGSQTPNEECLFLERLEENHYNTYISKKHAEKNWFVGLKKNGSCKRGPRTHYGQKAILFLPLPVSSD
# FGFR2 D2 domain (Homo sapiens, UniProt P21802, A168S), sequence (P21802 145-255 A168S): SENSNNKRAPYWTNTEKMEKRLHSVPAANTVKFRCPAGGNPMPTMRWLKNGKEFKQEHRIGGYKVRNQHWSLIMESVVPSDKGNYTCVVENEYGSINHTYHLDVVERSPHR
Kd (FGFR2 D2 domain [1]) [nM],Kd (FGFR2 D2 domain [2]) [nM],Kd [3] [nM],Molecule
~2200,~22000,–,"O=S(=O)(O)OC[C@H]1O[C@@](COS(=O)(=O)O)(O[C@H]2O[C@H](COS(=O)(=O)O)[C@@H](OS(=O)(=O)O)[C@H](OS(=O)(=O)O)[C@H]2OS(=O)(=O)O)[C@@H](OS(=O)(=O)O)[C@@H]1OS(=O)(=O)O [SOS, sucrose octasulfate]"
–,–,~2000,"wild type D2 domain of fibroblast growth factor receptor 2 (FGFR2), residues 145-255 (domain or fragment, human, UniProt P21802 145-255, looked up) SENSNNKRAPYWTNTEKMEKRLHAVPAANTVKFRCPAGGNPMPTMRWLKNGKEFKQEHRIGGYKVRNQHWSLIMESVVPSDKGNYTCVVENEYGSINHTYHLDVVERSPHR"
